Data published in patent US7744921B2, “Liposome loading with metal ions” (Celator Pharmaceuticals, Inc., priority 2001, dated 2010).
Entries after “also recorded” stand apart in the source; their conditions may differ. Read-outs that look alike come from different tables or passages of the source.

What was measured:
[1] = Plasma drug-to-lipid ratio 24 hours after intravenous administration of daunorubicin liposomes; type: in vivo; details: DSPC/DSPE-PEG2000 (95:5) liposomes with citrate pH 4.0, CuSO4 or MnSO4; Balb/c mice, lipid 100 mg/kg, daunorubicin 10 mg/kg
Method: DSPC/DSPE-PEG2000 liposomes were prepared as described and extruded at 75° C. The external solution was exchanged to HBS by dialysis against HBS. […] Plasma lipid concentrations were determined by liquid scintillation counting. […] The resulting mixture was mixed and 2 mL of 1:1 isopropanol/chloroform was added followed by vortexing. The samples were frozen at −20° C. overnight or −80° C. for 1 hour to promote protein aggregation, brought to room temperature, vortexed and centrifuged at 3000 rpm for 10 minutes.

[2] = Active (metal-based, citrate or ionophore) loading of drug into liposomes; spin column, drug-to-lipid ratio; type: physicochemical
[3] = as above; type: physicochemical; remark: listed apart in the source
Method: Lipids were dissolved in chloroform solution and subsequently dried under a stream of nitrogen gas and placed in a vacuum pump to remove solvent. Unless otherwise specified, trace levels of radioactive lipid 3H-CHE were added to quantify lipid during the formulation process. The resulting lipid film was placed under high vacuum for a minimum of 2 hours. The lipid film was hydrated in the solution indicated to form multilamellar vesicles (MLVs). The resulting preparation was extruded 10 times through stacked polycarbonate filters with an extrusion apparatus (Lipex Biomembranes, Vancouver, BC) to achieve a mean liposome size between 80 and 150 nm. All constituent lipids of liposomes are reported in mole %.
At various time points after initiation of drug loading, aliquots were removed and passed through a Sephadex G-50 spin column to separate free from encapsulated drug. To a specified volume of eluant, Triton X-100 or N-ocyl beta-D-glucopyranoside (OGP) was added to solubilize the liposomes. Following addition of detergent, the mixture was heated to the cloud point of the detergent and allowed to cool to room temperature before measurement of the absorbance or fluorescence. Drug concentrations were calculated by comparison to a standard curve.
In order to determine whether copper loading of irinotecan in the absence of a pH gradient could occur using a cholesterol-free formulation, DSPC/DSPG (80:20 mole ratio) liposomes containing copper(II) gluconate were prepared with an external and internal pH of 7.4. […] The lipid films were hydrated in 100 mM Cu(II) gluconate adjusted to pH 7.4 with triethanolamine (TEA) and extruded at 70° C. […] Irinotecan was added to the liposome preparation at a 0.1:1 drug-to-lipid mole ratio and incubated at 50° C. The extent of drug loading was determined as described in the methods by measuring absorbance at 370 nm and lipid levels were determined by liquid scintillation counting.
Loading of daunorubicin into DSPC/DSPG (90:10 mole ratio) liposomes containing encapsulated CuSO4 buffered to pH 7.4 was also investigated. […] A solution of 150 mM CuSO4, 20 mM histidine (adjusted to pH 7.4 using TEA), was employed as the hydration medium and MLVs were extruded at 70° C. […] Daunorubicin was loaded at a 0.1:1 drug/lipid weight ratio. A drug-to-lipid ratio at various time points during loading was determined by measuring absorbance at 480 nm after solubilization in detergent to quantify daunorubicin as described; lipid levels were determined by liquid scintillation counting.
The liposomes were prepared as described in the methods by hydrating lipid films in a solution of 100 mM copper(II) gluconate adjusted to pH 7.4 with TEA. Liposomes were extruded at 65° C. and the external buffer of the liposomes was exchanged to SHE, pH 7.4 by tangential flow dialysis. Liposomes were incubated with irinotecan at a 0.1:1 drug-to-lipid weight ratio at 50° C. and the extent of drug loading was determined as described by measuring absorbance at 370 nm after solubilization by detergent.
In addition to copper loading, loading of drug using MnSO4 containing liposomes in the absence of a pH gradient was also investigated. […] Lipids films were prepared as described and hydrated in 300 mM MnSO4 buffered to pH 7.4 with 20 mM imidazole (initial pH was adjusted to 7.4 with concentrated HCl) and extrusion was carried out at 70° C. The samples were run down a Sephadex G-50 column to exchange the exterior buffer with SHE, pH 7.4.

COc1cccc2c1C(=O)c1c(O)c3c(c(O)c1C2=O)C[C@@](O)(C(C)=O)C[C@@H]3O[C@H]1C[C@H](N)[C@H](O)[C@H](C)O1 [daunorubicin]
plasma drug-to-lipid ratio 24 hours after intravenous administration (in words) [1]: differing plasma drug-to-lipid ratios
drug encapsulation [2]: 80%
encapsulation [2]: > 95%
added drug encapsulated [3]: > 90%
encapsulation compared to CuCl2 (in words) [3]: not as efficient
loading (in words) [3]: most efficient; also recorded: occurred to a lesser extent; also recorded: less efficient
daunorubicin to lipid ratio achieved ([3]; DSPC/DSPE-PEG2000 (95:5), 300 mM MnSO4, loading temperature 60° C.): 0.07 mol:mol
drug encapsulation ([3]; DSPC/DSPE-PEG2000 (95:5), 300 mM NiSO4, SHE pH 7.4, weight ratio 0.2:1, 60° C., within 5 minutes): greater than 75%
loading (in words) ([3]; pH 7.4): efficiently load
uptake into liposomes ([3]; pH 7.4): 100%
